Patent publication US20220194960A1, “WEE1 INHIBITOR AND PREPARATION AND USE THEREOF” (SHOUYAO HOLDINGS (BEIJING) CO., LTD., priority 2019, published 2022)

Columns and labels:
[1] = tested on: Human non-small cell lung cancer cells NCI-H1299; test: NCI-H1299 cell proliferation inhibition (CellTiter-Glo); format: cell-based; details: cultured 3 days, table head NCI-H1975, method NCI-H1299
Protocol: 2. Determination of Cell Proliferation Activity of Compounds:
NCI-H1299 cell proliferation inhibition screening method was established using CellTiter-fib detection reagent from Promega.
Human non-small cell lung cancer cells NCI-H1299 were cultured in 25 cm^2 or 75 cm^2 plastic tissue culture flasks (Corning) filled with DMEM (Gibco) medium supplemented with 10% fetal bovine serum (Hyclone) under 37° C., 95% air, and 5% CO2, and subcultured 2-3 times a week.
Cells were seeded at 1000 cells/well in a 96-well cell culture plate (Corning), 195 μL/well, and cultured under 37° C., 95% air, and 5% CO2. The next day test compound was added: 10 mM compounds (dissolved in DMSO) were subjected to 3-fold gradient dilution in DMSO, 2 μL of diluent from each concentration was added to 48 μL of serum-fret medium, and finally 5 μL of the diluted compound was added to the plate seeded with cells. The final concentration of DMSO in the cell culture was 0.1% and the foul concentration of the test compound was 0.3 nM-10 μM. The cells were cultured at 37° C. for 3 days.

WEE1 kinase = target: T1, WEE1 kinase (Homo sapiens, UniProt P30291); test: WEE1 kinase binding assay (LanthaScreen EU); details: WEE1 kinase 20 nM, Kinase Tracer 178 100 nM, 23° C. for 60 min, read-out: WEEI (IC50)
T1 construct: purchased Carna bioscience
T1 sequence (P30291 whole entry): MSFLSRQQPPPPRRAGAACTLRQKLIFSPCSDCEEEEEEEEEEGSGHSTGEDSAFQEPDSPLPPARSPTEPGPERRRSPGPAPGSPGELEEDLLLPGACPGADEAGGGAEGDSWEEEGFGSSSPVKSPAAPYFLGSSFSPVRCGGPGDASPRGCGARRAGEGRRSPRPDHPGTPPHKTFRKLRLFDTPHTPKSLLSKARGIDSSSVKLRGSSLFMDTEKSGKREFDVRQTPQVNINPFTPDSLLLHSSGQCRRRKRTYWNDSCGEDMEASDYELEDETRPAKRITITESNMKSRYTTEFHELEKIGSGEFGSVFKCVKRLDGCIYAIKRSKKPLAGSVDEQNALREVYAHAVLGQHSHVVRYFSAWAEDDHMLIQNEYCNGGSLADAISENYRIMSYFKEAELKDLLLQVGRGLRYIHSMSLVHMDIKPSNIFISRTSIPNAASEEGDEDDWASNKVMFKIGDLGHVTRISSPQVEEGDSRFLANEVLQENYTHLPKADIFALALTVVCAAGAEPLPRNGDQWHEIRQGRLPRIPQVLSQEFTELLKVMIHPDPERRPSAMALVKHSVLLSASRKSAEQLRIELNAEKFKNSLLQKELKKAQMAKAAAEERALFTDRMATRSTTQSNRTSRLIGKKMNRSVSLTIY
Protocol: 1. Assay for WEE1 Kinase Inhibitory Activity (IC50) on Compounds
The WEE1 kinase binding assay was established and optimized with LanthaScreen EU for the determination of the activity of compounds. 10 mM compounds were subjected to ten-fold gradient dilution in 100% DMSO (6 concentrations in total), 5 μL of diluent from each concentration was added to 45 μL of reaction buffer (50 mM HEPES (4-hydroxyethylpiperazine ethanesulfonic acid), pH 7.5, 10 mM MgCl2 (magnesium chloride), 1 mM EGTA (ethylene glycol diethyl ether diamine tetraacetic acid), 0.01% Brij-35 (polyoxyethylene lauryl ether)) for blending. On this basis, 2 μL diluent from each concentration was added to 48 μL of reaction buffer for blending as a 4*compound (final concentrations of 1000, 100, 10, 1, 0.1, 0 nM) for later use. Reaction buffer was used to formulate 4*WEE1 kinase (purchased from Carna bioscience, a final concentration of 20 nM), 4*LanthaScreen EU-anti-GST Antibody (purchased from Invitrogen, PV5594, a fuel concentration of 2 nM), and 4*Kinase Tracer 178 (purchased from Invitrogen, PV5593, a final concentration of 100 nM). 2.5 μL of 4*compound was added to a 384-well plate (OptiPlate-384, purchased from PerkinElmer), followed by adding 2.5 μL of 4*WEE1 kinase, standing for 5 min at room temperature. Then 2.5 μL of 4*LanthaScreen EU-anti-GST Antibody was added followed by 2.5 μL of 4*Kinase Tracer 178. The reaction was started by centrifugation (a total reaction volume of 10 μL). The 384-well plate was wrapped with tin foil paper and placed in an incubator at 23° C. for 60 min. Fluorescence values (excitation at 320 nm, detecting emitted light at 665 nm and 615 nm, and a ratio of the two as enzyme activity) were read on Envision (purchased from PerkinElmer). The enzyme activity of each compound was measured at 6 concentrations, and the IC50 value of the compound was calculated using GraFit6.0 software (Erithacus Software).
The aforementioned “*” refers to multiplying, representing multiples.

SMILES	IC50 ([1]; Homo sapiens, 72 h) [µM]	IC50 (WEE1 kinase) [µM]	IC50 [1] [µM]
CN1[C@@H]2CC[C@H]1CN(c1ccc(Nc3ncc4c(F)c(C5CC5)n(-c5cccc(N=S(C)(C)=O)n5)c4n3)cc1)C2 [Example 82, ((6-(6-cyclopropyl-5-fluoro-2-((4-((1R,5S)-8-methyl-3,8-diazabicyclo[3.2.1]octan-3-yl)phenyl)amino)-7H-pyrrolo[2,3-d]pyrimidin-7-yl)pyridin-2-yl)imino)dimethyl-Ab-sulfanone]	0.064	0.00058	
COc1cc(Nc2ncc3cc(C4CC4)n(-c4cccc(N=S(C)(C)=O)n4)c3n2)ccc1N1CCC(N2CCN(C)CC2)CC1 [Example 87, ((6-(6-cyclopropyl-2-((3-methoxy-4-(4-(4-methylpiperazin-1-yl)piperidin-1-yl)phenyl)amino)-7H-pyrrolo[2,3-d]pyrimidin-7-yl)pyridin-2-yl)imino)dimethyl-λ^6-sulfanone]	0.09	0.00098	
CCCc1cc2cnc(Nc3ccc(N4CCN(C)CC4)cc3)nc2n1-c1cccc(N=S(C)(C)=O)n1 [Example 7, ((6-(6-propyl-2-((4-(4-methylpiperazin-yl)phenyl)amino)-7H-pyrrolo[2,3-d]pyrimidin-7-yl)pyridin-2-yl)imino)dimethyl-λ^6-sulfanone]		0.00092	0.042
CCc1cc2cnc(Nc3ccc(N4CCN(CCN(C)C)CC4)cc3)nc2n1-c1cccc(N=S(C)(C)=O)n1 [Example 155, ((6-(2-((4 (4-(2-(dimethylamino)ethyl)piperazin-1-yl)phenyl)amino)-6-ethyl-7H-pyrrolo[2,3-d]pyrimidin-7-yl)pyridin-2-yl)imino)dimethyl-λ^6-sulfanone]	0.089	0.00102	
CN1CC2(CCN(c3ccc(Nc4ncc5cc(C6CC6)n(-c6cccc(N=S(C)(C)=O)n6)c5n4)cc3)CC2)C1 [Example 85, ((6-(6-cyclopropyl-2-((4-(2-methyl-2,7-diazaspiro[3.5]nonan-7-yl)phenyl)amino)-7H-pyrrolo[2,3-d]pyrimidin-7-yl)pyridin-2-yl)imino)dimethyl-λ^6-sulfanone]	0.079	0.00085	
CN1CCN(c2ccc(Nc3ncc4c(F)c(C5CC5)n(-c5cccc(N=S(C)(C)=O)n5)c4n3)cc2)C(CO)C1 (centres unmarked) [Example 28]		0.0013	0.04
Cc1cc2cnc(Nc3ccc(N4CCC5(CCN(C)CC5)CC4)cc3)nc2n1-c1cccc(C(C)(C)O)n1 [Example 147, 2-(6-(6-methyl-2-((4-(9-methyl-3,9-diazaspiro[5.5]undecan-3-yl)phenyl)amino)-7H-pyrrolo[2,3-d]pyrimidin-7-yl)pyridin 2-yl)propan-2-ol]	0.085	0.00091	
CN1CCN(C2CCN(c3ccc(Nc4ncc5c(F)c(C6CC6)n(-c6cccc(N=S(C)(C)=O)n6)c5n4)cc3F)CC2)CC1 [Example 47, ((6-(5-fluoro-2-((3-fluoro-4-(4-(4-methylpiperazin-1-yl)piperidin-1-yl)phenyl)amino)-6-cyclopropyl-7H-pyrrolo[2,3-d]pyrimidin-7-yl)pyridin-2-yl)imino)dimethyl-λ^6-sulfanone]	0.063	0.00097	
CN1CCN(C2CCN(c3ccc(Nc4ncc5cc(C6CC6)n(-c6cccc(N=S(C)(C)=O)n6)c5n4)cc3F)CC2)CC1 [Example 48, ((6-(2-((3-fluoro-4-(4-(4-methylpiperazin-1-yl)piperidin-1-yl)phenyl)amino)-6-cyclopropyl-7H-pyrrolo[2,3-d]pyrimidin-7-yl)pyridin-2-yl)imino)dimethyl-λ^6-sulfanone]	0.042	0.0008	

More lines, now with the values ahead:

IC50 ([1]; Homo sapiens, 72 h) [µM]	IC50 (WEE1 kinase) [µM]	IC50 [1] [µM]	SMILES
0.059	0.00051		Cc1cc2cnc(Nc3ccc(N4CCN(C)CC4)cc3)nc2n1-c1cccc(N=S(C)(C)=O)n1 [Example 13, ((6-(6-methyl-2 ((4 (4-methylpiperazin-1-yl)phenyl)amino)-7H-pyrrolo[2,3-d]pyrimidin-7-yl)pyridin-2-yl)imino)dimethyl-λ^6-sulfanone]
0.033	0.00076		CCCc1cc2cnc(Nc3ccc(N4CCN(C)CC4)cc3)nc2n1-c1cccc(N=S(C)(C)=O)n1 [Example 4, ((6-(2-((4 (4-methylpiperazin-1-yl)phenyl)amino)-6-propyl-7H-pyrrolo[2,3-d]pyrimidin-7-yl)pyridin-2-yl)imino)dimethyl-λ^6-sulfanone]
0.07	0.00061		CN(C)CCN1CCN(c2ccc(Nc3ncc4cc(C5CC5)n(-c5cccc(N=S(C)(C)=O)n5)c4n3)cc2)CC1 [Example 108]
0.056	0.00063		Cc1cc(Nc2ncc3cc(C4CC4)n(-c4cccc(N=S(C)(C)=O)n4)c3n2)ccc1N1CCC(N2CCN(C)CC2)CC1 [Example 52, ((6-(2-((3-methyl-4-(4-(4-methylpiperazin-1-yl)piperidin-1-yl)phenyl)amino)-6-cyclopropyl-7H-pyrrolo[2,3-d]pyrimidin-7-yl)pyridin-2-yl)imino)dimethyl-λ^6-sulfanone]
	0.00079	0.084	CC1(O)CN(N2CCN(c3ccc(Nc4ncc5cc(C6CC6)n(-c6cccc(N=S(C)(C)=O)n6)c5n4)cc3)CC2)C1 [Example 98, ((6-(6-cyclopropyl-2-((4-(4-(3-hydroxy-3-methylazetidin-1-yl)piperazin-1-yl)phenyl)-amino)-7H-pyrrolo[2,3-d]pyrimidin-7-yl)pyridin-2-yl)imino)dimethyl-λ^6-sulfanone]
0.07	0.00066		COC(=O)CN1CCN(c2ccc(Nc3ncc4cc(C5CC5)n(-c5cccc(N=S(C)(C)=O)n5)c4n3)cc2)CC1 [Example 127]
0.06	0.00054		CN1CC2(CCN(c3ccc(Nc4ncc5c(F)c(C6CC6)n(-c6cccc(N=S(C)(C)=O)n6)c5n4)cc3)CC2)C1 [Example 86, ((6-(6-cyclopropyl-5-fluoro-2-((4-(2-methyl-2,7-diazaspiro[3.5]nonan-7-yl)phenyl)amino)-7H-pyrrolo[2,3-d]pyrimidin-7-yl)pyridin-2-yl)imino)dimethyl-λ^6-sulfanone]
0.043	0.00057		CCCc1c(F)c2cnc(Nc3ccc(N4CCN(C)CC4)cc3)nc2n1-c1cccc(N=S(C)(C)=O)n1 [Example 1, ((6-(5-fluoro-2-((4-(4-methylpiperazin-1-yl)phenyl)amino)-6-propyl-7H-pyrrolo[2,3-d]pyrimidin-7-yl)pyridin-2-yl)imino)dimethyl-λ^6-sulfanone]
	0.00069	0.064	Cc1cc2cnc(Nc3ccc(N4CCC5(CCN(C)CC5)CC4)cc3)nc2n1-c1cccc(N=S(C)(C)=O)n1 [Example 139, ((6-(6-methyl-2-((4-(9-methyl-3,9-diazaspiro[5.5]undecan-3-yl)phenyl)amino)-7H-pyrrolo[2,3-d]pyrimidin-7-yl)pyridin-2-yl)imino)dimethyl-λ^6-sulfanone]
0.069	0.00053		CCc1cc2cnc(Nc3ccc(N4CCC(N5CCN(C)CC5)CC4)cc3)nc2n1-c1cccc(N=S(C)(C)=O)n1 [Example 154, ((6-(6-ethyl-2-((4 (4-(4-methylpiperazin-1-yl)piperidin-1-yl)phenyl)amino)-7H-pyrrolo[2,3-d]pyrimidin-7-yl)pyridin-2-yl)imino)dimethyl-λ^6-sulfanone]
0.06	0.00057		CN1CCN(c2ccc(Nc3ncc4c(F)c(C5CC5)n(-c5cccc(N=S(C)(C)=O)n5)c4n3)cc2)CC1CO (centres unmarked) [Example 27, ((6-(6-cyclopropyl-5-fluoro-2 ((4-(3-hydroxymethyl-4-methylpiperazin-1-yl)phenyl)amino)-7H-pyrrolo[2,3-d]pyrimidin-7-yl)pyridin-2-yl)imino)dimethyl-λ^6-sulfanone]
0.023	0.0002		CCc1cc2cnc(Nc3ccc(N4CCN(C)CC4)cc3)nc2n1-c1cccc(N=S(C)(C)=O)n1 [Example 152]
0.032	0.00022		Cc1cc2cnc(Nc3ccc(N4CCC(N5CCN(C)CC5)CC4)cc3)nc2n1-c1cccc(N=S(C)(C)=O)n1 [Example 150]
